The source of these data is patent publication EP0140848A1, “A pharmaceutical composition containing azo-bis-salicylic acid or a salt thereof, and a method for the treatment of inflammatory conditions in the intestines” (priority 1983, dated 1985).

Data set [1] is described as follows: Toxicity (general statement, no method described). The note with it: no data or method given.
A further data set has as its system tuberculosis. As to conditions: according to Ind. J. Med. Res. 40 (1952), p. 4-5, and Ind. J. Pharm. 13 (1951), p. 3-5; cited from earlier work.

For the compound `CC(=O)Nc1ccc(C(=O)O)c(O)c1` [Ac-PAS, N-acetyl-p-aminosalicylic acid], the toxicity entry in data set [1] is given as “remarkably low”.
As for `Nc1ccc(C(=O)O)c(O)c1` [PAS, 4-aminosalicylic acid, reference compound], in data set [1], the toxicity entry is “remarkably low”.
With `O=C(O)c1ccc(N=Nc2ccc(C(=O)O)c(O)c2)cc1O` [4,4'-azo-bis-salicylic acid], in data set [1], the toxicity entry is listed as “remarkably low”. Further, in the data set with tuberculosis, the activity against tuberculosis entry was “inactive”.
